Values after ≈ are worked out from the molar mass of the structure shown. Where two headings read alike, the source gives them in different places.
Experiments:
Hela cells = assay: Cloning efficiency of Hela cells in vitro (colony inhibition); assay type: cell-based; details: Homo sapiens
Description: After treatment for 2, 8 and 24 hours, Hela cells were seeded (200 cells per plate) and the number of colonies determined 8 days later. The inhibiting dose (ID50) represents the does which produces a 50% inhibition of colonies.
^a cloning efficiency of Hela cells

[1] = tested on: Moloney Sarcoma Virus (MSV); assay: Formation of foci by Moloney Sarcoma Virus (MSV) in vitro (antiviral action); assay type: cell-based; details: Fibroblast, 72 h, read-out: Antiviral action ID50
Description: (§1) The test compound was evaluated on mouse embryo fibroblast (MEF) cultures infected with MSV and on similar uninfected cultures. After a treatment of three days the inhibiting doses (ID50) were evaluated on cell proliferation in uninfected cultures (cytotoxic action) and on MSV foci formation in infected cultures (antiviral action).
^b inhibition of MSV foci formation

[2] = Proliferation of uninfected mouse embryo fibroblast (MEF) cultures (cytotoxic action); assay type: cell-based; details: mouse, mouse embryo fibroblasts; uninfected MEF, three days treatment; Table 2; read-out: Cytotoxic action ID50
Description: as §1
(§2) ^c inhibition of mouse embryo fibroblasts proliferation

[3] = tested on: mouse embryo fibroblast (MEF) cultures; assay: as above; assay type: cell-based
Description: as §1, §2

[4] = tested on: Ascites lymphocitic P 388 Leukemia; assay: Ascites lymphocitic P 388 Leukemia in CDF1 mice, i.p. treatment days 1-9; assay type: in vivo, mouse (male CDF1); details: for Tumor evaluation, median survival time: control 12.1 days

## COc1cccc2c1C(=O)c1c(O)c3c(c(O)c1C2=O)C[C@@](O)(C(C)=O)C[C@@H]3O[C@H]1C[C@@H](N)[C@@H](O)[C@H](C)O1 [3'-4'-epi-daunomycin, 3',4'-epi-daunomycin]
Hela cells; 2 h, read-out: ID50 (action on Hela cells), 2 hours treatment, Table 1
  IC50: 270 µg/mL (≈ 512 µM)
Hela cells; 8 h, read-out: ID50 (action on Hela cells), 8 hours treatment, Table 1
  IC50: 220 µg/mL (≈ 417 µM)
Hela cells; 24 h, read-out: ID50 (action on Hela cells), 24 hours treatment, Table 1
  IC50: 190 µg/mL (≈ 360 µM)
[1]
  IC50: 0.045 µg/mL (≈ 0.0853 µM)
[2]
  CC50 at 72 h: 0.09 µg/mL (≈ 0.171 µM)
[3]
  cytotoxic activity in vitro compared with daunomycin: less cytotoxic acitivity in vitro, when compared with daunomycin
[4]; 1.56 mg/kg i.p., days 1-9
  Toxicity (survivors at fifth day): 6/6
  Tumor evaluation, T/C %: 129%
  Tumor evaluation, median survival time: 15.7 days
[4]; 3.13 mg/kg i.p., days 1-9
  Toxicity (survivors at fifth day): 6/6
  Tumor evaluation, T/C %: 142%
[4]; 6.25 mg/kg i.p., days 1-9
  Toxicity (survivors at fifth day): 6/6
  Tumor evaluation, T/C %: 155%
[4]; 12.5 mg/kg i.p., days 1-9
  Toxicity (survivors at fifth day): 6/6
  Tumor evaluation, T/C %: 173%
  Tumor evaluation, median survival time: 21 days
[4]; 25 mg/kg i.p., days 1-9
  Toxicity (survivors at fifth day): 6/6
  Tumor evaluation, T/C %: 231%
  Tumor evaluation, median survival time: 28 days
[4]; 25 mg/kg i.p., days 1-9, evaluated day 20
  Cures: 1
[4]; Table 3
  anti-tumor activity in tumor bearing animals: distinct anti-tumor activity

Reference: patent US4112076A, “Epi-daunomycin and epi-adriamycin compounds and method of use” (priority 1975, dated 1978)
